Data: patent US8901294B2, “MRI contrast agent having gadolinium complex” (priority 2010, dated 2014)
Entries after “also recorded” stand apart in the source; their conditions may differ. Where two headings read alike, the source gives them in different places.

Tests used:
[1] = Relaxation times (T1, T2) and relaxivities (R1, R2) at 1.5 T; format: physicochemical
Protocol: T1 measurements were carried out using an inversion recovery method with a variable inversion time (TI) at 1.5 T. The MR images were acquired at 35 different TI values ranging from 50 to 1750 ms. T1 relaxation times were obtained from the nonlinear least-squares fit of the signal intensity measured at each T1 value. For T2 measurements the CPMG (Carr-Purcell-Meiboon-Gill) pulse sequence was adapted for multiple spin-echo measurements. Thirty-four images were acquired with 34 different echo time (TE) values. T2 relaxation times were obtained from the nonlinear least-squares fit of the mean pixel values for the multiple spin-echo measurements at each echo time. Relaxivities were then calculated as an inverse (R=1/s·mM) of relaxation time per mM. The determined relaxation times and relaxivities are finally transformed to a phantom map. The phantom images were obtained with the same concentration of Dotarem® and gadolinium complexes or comparative purposes. […] Table 2 summarizes the relaxation times and relaxivities for gadolinium complexes of the present invention along with other Gd-complexes.

ICR mice = experiment: In vivo MRI test; settings: 0.1 mmol of Gd/kg
Protocol: (§1) To study the contrasting effect of the MRI contrast agent according to the present invention, six-week-old male ICR mice (weight=29-31 g) were used for the in vivo study. The mice were anesthetized by 1.5% isoflurane in oxygen and treated with gadolinium complex (5c) of the present invention at amount of 0.1 mmol of Gd/kg. After the treatment, the mouse was revived from anesthesia and placed in the cage with free access to food and water. The animals were maintained at approximately 37° C. using a warm water blanket.
MR images were taken with 1.5 T (GE Healthcare, Milwaukee, Wis., USA) equipped with a homemade small animal RF coil. The coil was of the receiver type with its inner diameter being 50 mm. The imaging parameters for 3D fast SPGR (spoiled GRASS images) are as follows: repetition time (TR)=8.8 ms; echo time (TE)=3.9 ms; 10 mm field of view (FOV); 256×192 matrix size; 1.0 mm slice thickness; number of acquisition (NEX)=4. The imaging parameters for spin-echo are as follows: TR=500 ms; TE=13 ms; 6 mm FOV; 192×128 matrix size; 1.5 mm slice thickness; NEX=4. Each image was taken with an interval of 3 min and 16 s. […] For analysis of the obtained MR images, signal intensities in specific regions of interest (ROI) were measured using Advantage Window software (GE Medical, USA). The CNR was calculated using Equation 3, where SNR is the signal-to-noise ratio. […]

[2] = ICP measurement of Gd(III) ion concentration in organs with time; format: in vivo, mice; parameters: unit not given here
Protocol: as §1
The excretion via the bile duct was further confirmed by measuring the concentration of Gd(III) ions with time through inductively coupled plasma (ICP) measurement. At 6 h after the injection, the Gd(III) ions were detected in the intestine, confirming that they are excreted via the liver and the bile duct.

[3] = 20 MHz, 298 K; cited from earlier work
[4] = Transmetalation kinetics: evolution of paramagnetic relaxation rate R1P(t)/R1P(0) in presence of ZnCl2; format: physicochemical; settings: for pattern of evolution of the paramagnetic relaxation rate R1P(t)/R1P(0) (in words): phosphate-buffered solution pH 7.4, 2.5 mmol/L Gd-complex and 2.5 mmol/L ZnCl2, 72 hours
Description: […]. The relative value of R1^P at time t, R1^P(t)/R1^P(0), is therefore a good estimate of the extent of transmetalation. The evolution of R1^P(t)/R1^P(0) over time gives relevant information about the kinetics of the reaction, whereas the plateau value theoretically reached at t=∞ will reflect the thermodynamic aspect.
Accordingly, in order to investigate the transmetalation kinetics of the gadolinium complexes according to the present invention, the evolution of water proton relaxation rate (R1^P) of a phosphate-buffered solution (pH 7.4) containing 2.5 mmol/L of Gd-complex and 2.5 mmol/L of ZnCl2 with time was measured. To measure the change in the relaxation rate, 10 μL of a ZnCl2 solution (250 mmol/L) was added to 1 mL of a buffered solution of the Gd-complex and the mixture was vigorously stirred. The same experiment was performed with Dotarem®, Omniscan®, Multihance®, Primovist® and ethyl tranexamate (6) with zinc acetate for comparison. The measurement was made on a 3T whole body system (Magnetom Tim Trip; Simens, Germany) at room temperature.

[5] = reference values from ref. 8 or 9; cited from earlier work

C=CCOC(=O)C1CCC(CNC(=O)CN2CCN(CC(=O)[O-])CCN(CC(=O)[O-])CCN(CC(=O)[O-])CC2)CC1.O.[Gd+3] (stereo not shown) [Compound 5c]
R1 value compared with commercially available contrast agents (in words) ([1]; 1.5 T): significantly higher R1 values than any of the clinically used contrast agents; also recorded: very high R1 values
R1 relaxivity ([1]; 1.5 T, mean value(±SD)): 9.5 ± 0.12 mM⁻¹ s⁻¹
R2 relaxivity ([1]; 1.5 T, mean value(±SD)): 10.9 ± 0.03 mM⁻¹ s⁻¹
T1 relaxation time ([1]; 1.5 T, mean value(±SD)): 105.28 ± 1.33 ms
T2 relaxation time ([1]; 1.5 T, mean value(±SD)): 91.74 ± 0.25 ms
R1 value relative to that of Dotarem ([1]; ratio of R1 values): 2.6 times
excretion pattern (MR images) (ICR mice): excreted slowly to the intestine via the bile duct through hepatobiliary uptake
MR contrasting effect in the liver (ICR mice; 1.5 T): enhances contrast of the liver
concentration of Gd(III) ions (ICP) ([2]; Bile duct, 6 h after injection): 13.95
concentration of Gd(III) ions (ICP) ([2]; Blood, 1 h after injection): 5.16
concentration of Gd(III) ions (ICP) ([2]; Blood, 6 h after injection): 0.12
concentration of Gd(III) ions (ICP) ([2]; Intestine, 6 h after injection): 2.485
concentration of Gd(III) ions (ICP) ([2]; Kidney, 1 h after injection): 65.17
concentration of Gd(III) ions (ICP) ([2]; Kidney, 6 h after injection): 68.22
concentration of Gd(III) ions (ICP) ([2]; Kidney, 24 h after injection): 10.89
concentration of Gd(III) ions (ICP) ([2]; Kidney, 48 h after injection): 6.91
concentration of Gd(III) ions (ICP) ([2]; Liver, 1 h after injection): 62.09
concentration of Gd(III) ions (ICP) ([2]; Liver, 6 h after injection): 50.90
concentration of Gd(III) ions (ICP) ([2]; Liver, 24 h after injection): 33.73
concentration of Gd(III) ions (ICP) ([2]; Liver, 48 h after injection): 35.90
concentration of Gd(III) ions (ICP) ([2]; Liver, 72 h after injection): 6.22

CNC[C@H](O)[C@@H](O)[C@H](O)[C@H](O)CO.CNC[C@H](O)[C@@H](O)[C@H](O)[C@H](O)CO.O=C([O-])CN(CCN(CC(=O)[O-])CC(=O)O)CCN(CC(=O)[O-])CC(=O)O.[Gd+3] [Magnevist, (N-Me-glucamine)2[Gd(DTPA)(H2O)]]
magnetic relaxation rate [3]: about 4.7 mM^−1s^−1

CNC(=O)CN(CCN(CCN(CC(=O)[O-])CC(=O)NC)CC(=O)[O-])CC(=O)[O-].[Gd+3] [Omniscan, [Gd(DTPA-bismethylamide)(H2O)]]
magnetic relaxation rate [3]: about 4.4 mM^−1s^−1
paramagnetic relaxation rate retained, R1P(t)/R1P(0) (kinetic stability) ([4]; 72 hours, phosphate-buffered solution pH 7.4, 2.5 mmol/L Gd-complex and 2.5 mmol/L ZnCl2, room temperature, 3T): 30%
pattern of evolution of the paramagnetic relaxation rate R1P(t)/R1P(0) (in words) [4]: drastic decrease in the rate
R1 relaxivity [5]: 4.9 ± 0.14 mM⁻¹ s⁻¹
R2 relaxivity [5]: 3.4 ± 0.25 mM⁻¹ s⁻¹
T1 relaxation time [5]: 209.8 ± 5.82 ms
T2 relaxation time [5]: 290.9 ± 21.02 ms

CCOc1ccc(CC(CN(CCN(CC(=O)[O-])CC(=O)[O-])CC(=O)[O-])N(CC(=O)[O-])CC(=O)[O-])cc1.[Gd+3].[Na+].[Na+] (stereo not shown) [Primovist]
pattern of evolution of the paramagnetic relaxation rate R1P(t)/R1P(0) (in words) [4]: drastic decrease in the rate
R1 relaxivity [5]: 4.7 ± 0.2 mM⁻¹ s⁻¹
R2 relaxivity [5]: 5.1 ± 0.6 mM⁻¹ s⁻¹
T1 relaxation time [5]: 213.15 ± 9.07 ms
T2 relaxation time [5]: 198.83 ± 23.4 ms
